Measurements taken from patent publication US9505728B2, “Triazolone compounds and uses thereof” (INCEPTION 2, INC., priority 2012, dated 2016).

target: T1, Human PPARα (Homo sapiens, UniProt Q07869); assay: Human PPARα Reporter Assay (luciferase); assay type: cell-based; conditions: human PPARα reporter cells, overnight incubation, antagonism; read-out: Luciferase IC50
T1 construct: host or cells: proprietary non-human mammalian cells
T1 sequence (Q07869 1-468): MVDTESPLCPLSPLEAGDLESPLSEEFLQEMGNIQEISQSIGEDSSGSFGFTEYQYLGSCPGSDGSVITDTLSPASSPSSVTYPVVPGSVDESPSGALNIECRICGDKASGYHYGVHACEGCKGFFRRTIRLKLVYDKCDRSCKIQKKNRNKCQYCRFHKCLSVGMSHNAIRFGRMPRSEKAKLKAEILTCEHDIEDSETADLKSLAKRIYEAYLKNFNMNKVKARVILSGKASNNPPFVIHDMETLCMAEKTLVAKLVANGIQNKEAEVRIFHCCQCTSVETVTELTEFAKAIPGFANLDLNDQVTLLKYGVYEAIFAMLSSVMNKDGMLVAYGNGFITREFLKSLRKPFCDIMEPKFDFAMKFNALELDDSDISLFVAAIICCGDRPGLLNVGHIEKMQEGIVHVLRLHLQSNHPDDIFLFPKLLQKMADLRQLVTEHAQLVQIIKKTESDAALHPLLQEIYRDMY
Procedure: Human PPARα Reporter Assay
The screening of test compounds for agonist or antagonist activities against human PPARα receptors was performed using a commercial kit, Human PPARα Reporter Assay System (Indigo Biosciences, Cat. #IB00111).
This nuclear receptor assay system utilizes proprietary non-human mammalian cells engineered to provide constitutive, high-level expression of Human PPARα. Because these cells incorporate a PPARα-responsive luciferase reporter gene, quantifying expressed luciferase activity provides a sensitive surrogate measure of PPARα activity in the treated cells. The primary application of this reporter assay system is in the screening of test samples to quantify any functional activity, either agonist or antagonist, that they may exert against human PPARα.
Briefly, reporter cells are dispensed into wells of the assay plate and then immediately dosed with test compounds. Following an overnight incubation, the treatment media is discarded and Luciferase Detection Reagent (LDR) is added. The intensity of light emission from the ensuing luciferase reaction provides a sensitive measure that is directly proportional to the relative level of PPARα activation in the reporter cells.

Q: `CCCn1c(CCCc2ccc(-c3ccc(OCC)c(CC(=O)O)c3)cc2)nn(Cc2ccc(C(C)(C)C)cc2)c1=O` [Example 68, 2-(4′-(3-(1-(4-(tert-Butyl)benzyl)-5-oxo-4-propyl-4,5-dihydro-1H-1,2,4-triazol-3-yl)propyl)-4-ethoxy-[1,1′-biphenyl]-3-yl)acetic acid] was tested. Which IC50 did it give?
A: The IC50 was 32 nM.

Q: For `CCn1c(CCCc2ccc(-c3cc(CC(=O)O)ccc3OC)cc2)nn(Cc2ccc(C(C)(C)C)cc2)c1=O` [Example 20, 2-(4′-(3-(1-(4-(tert-Butyl)benzyl)-4-ethyl-5-oxo-4,5-dihydro-1H-1,2,4-triazol-3-yl)propyl)-6-methoxy-[1,1′-biphenyl]-3-yl)acetic acid], which IC50 is on record?
A: The IC50 was 1830 nM.

Q: For `CCn1c(CCCc2ccc(-c3cnc(C4(F)COC4)s3)cc2)nn(Cc2ccc(C(C)(C)C)cc2)c1=O` [Example 202, 1-(4-(tert-Butyl)benzyl)-4-ethyl-3-(3-(4-(2-(3-fluorooxetan-3-yl)thiazol-5-yl)phenyl)propyl)-1H-1,2,4-triazol-5(4H)-one], which IC50 is on record?
A: The IC50 was 51 nM.

Q: With `CCn1c(CCCc2ccc(-c3ccc(NS(=O)(=O)c4ccccc4)c(C)n3)cc2)nn(Cc2ccc(C(C)(C)C)cc2)c1=O` [Example 124, 1-{[4-(tert-Butyl)phenyl]methyl}-4-ethyl-3-[3-(4-{6-methyl-5-[(phenylsulfonyl)amino](2-pyridyl)}phenyl)propyl]-1,2,4-triazolin-5-one] as the compound, how does the IC50 read?
A: The IC50 was 290 nM.

Q: `CCn1c(CCCc2ccc(-c3cccc(NC(=O)Nc4ccccc4)n3)cc2)nn(Cc2ccc(C(C)(C)C)cc2)c1=O` [Example 153, 1-(6-(4-(3-(1-(4-(tert-Butyl)benzyl)-4-ethyl-5-oxo-4,5-dihydro-1H-1,2,4-triazol-3-yl)propyl)phenyl)pyridin-2-yl)-3-phenylurea] was tested. Which IC50 did it give?
A: The IC50 was 947 nM.

Q: Which IC50 does the source give for `CCn1c(CCCc2ccc(-c3cc(NS(C)(=O)=O)ccn3)cc2)nn(Cc2ccc(C(C)(C)C)cc2)c1=O` [Example 40, 1-{[4-(tert-Butyl)phenyl]methyl}-4-ethyl-3-[3-(4-{4-[(methylsulfonyl)amino](2-pyridyl)}phenyl)propyl]-1,2,4-triazolin-5-one] here?
A: The IC50 was 408 nM.

Q: For `CCn1c(CCCc2ccc(-c3cncc(N)c3)cc2)nn(Cc2ccc(C(C)(C)C)cc2)c1=O` [Example 109, 3-(3-(4-(5-Aminopyridin-3-yl)phenyl)propyl)-1-(4-(tert-butyl)benzyl)-4-ethyl-1H-1,2,4-triazol-5(4H)-one], which IC50 is on record?
A: Its IC50 is 590 nM.

Q: For `CCn1c(CCCc2ccc(-c3nccc(NS(=O)(=O)c4ccccc4)n3)cc2)nn(Cc2ccc(C(C)(C)C)cc2)c1=O` [Example 81, N-(2-(4-(3-(1-(4-(tert-Butyl)benzyl)-4-ethyl-5-oxo-4,5-dihydro-1H-1,2,4-triazol-3-yl)propyl)phenyl)pyrimidin-4-yl)benzenesulfonamide], which IC50 is on record?
A: Its IC50 is 127 nM.

Q: Which IC50 does the source give for `CCn1c(CCCc2ccc(-c3ccc(N)cn3)cc2)nn(Cc2ccc(C(C)(C)C)cc2)c1=O` [Example 5, 3-(3-(4-(5-Aminopyridin-2-yl)phenyl)propyl)-1-(4-(tert-butyl)benzyl)-4-ethyl-1H-1,2,4-triazol-5(4H)-one] here?
A: Its IC50 is 43 nM.

Q: With `CCn1c(CCCc2ccc(-c3cccc(CCC(=O)O)c3)cc2)nn(Cc2ccc(C(C)(C)C)cc2)c1=O` [Example 36, 3-(4′-(3-(1-(4-(tert-Butyl)benzyl)-4-ethyl-5-oxo-4,5-dihydro-1H-1,2,4-triazol-3-yl)propyl)-[1,1′-biphenyl]-3-yl)propanoic acid] as the compound, how does the IC50 read?
A: The IC50 was 2760 nM.

Q: Which IC50 does the source give for `CCCn1c(CCCc2ccc(-c3ccc(OC)c(CC(=O)O)c3)cc2)nn(Cc2ccc(C(C)(C)C)cc2)c1=O` [Example 80, 2-(4′-(3-(1-(4-(tert-Butyl)benzyl)-5-oxo-4-propyl-4,5-dihydro-1H-1,2,4-triazol-3-yl)propyl)-4-methoxy-[1,1′-biphenyl]-3-yl)acetic acid] here?
A: The IC50 was 22 nM.

Q: With `CCn1c(CCC(F)(F)c2ccc(-c3ccc(OC)c(CC(=O)O)c3)cc2)nn(Cc2ccc(C(C)(C)C)cc2)c1=O` [Example 163, 2-(4′-(3-(1-(4-(tert-Butyl)benzyl)-4-ethyl-5-oxo-4,5-dihydro-1H-1,2,4-triazol-3-yl)-1,1-difluoropropyl)-4-methoxy-[1,1′-biphenyl]-3-yl)acetic acid] as the compound, how does the IC50 read?
A: The IC50 was 15 nM.

Q: `CCn1c(CCCc2ccc(-c3ccc(OC)c(N)c3)cc2)nn(Cc2ccc(C(C)(C)C)cc2)c1=O` [Example 147, 3-(3-(3′-Amino-4′-methoxy-[1,1′-biphenyl]-4-yl)propyl)-1-(4-(tert-butyl)benzyl)-4-ethyl-1H-1,2,4-triazol-5(4H)-one] was tested. Which IC50 did it give?
A: Its IC50 is 85 nM.

Q: Which IC50 does the source give for `CCn1c(CCCc2ccc(-c3ccc(NS(=O)(=O)Cc4ccccc4)cn3)cc2)nn(Cc2ccc(C(C)(C)C)cc2)c1=O` [Example 79, 1-{[4-(tert-Butyl)phenyl]methyl}-4-ethyl-3-{3-[4-(5-{[benzylsulfonyl]amino}(2-pyridyl))phenyl]propyl}-1,2,4-triazolin-5-one] here?
A: The IC50 was 263 nM.

Q: With `CCn1c(CCCc2ccc(-c3ccc(S(=O)(=O)NCc4ccccc4)cc3)cc2)nn(Cc2ccc(C(C)(C)C)cc2)c1=O` [Example 99, N-benzyl-4′-(3-(1-(4-(tert-butyl)benzyl)-4-ethyl-5-oxo-4,5-dihydro-1H-1,2,4-triazol-3-yl)propyl)-[1,1′-biphenyl]-4-sulfonamide] as the compound, how does the IC50 read?
A: The IC50 was 524 nM.

Q: `CCOc1ccc(-c2ccc(CCCc3nn(Cc4ccc(C(C)(C)C)cc4)c(=O)n3CC)cc2)nc1NS(=O)(=O)c1ccccc1` [Example 62, 1-{[4-(tert-Butyl)phenyl]methyl}-3-[3-(4-{5-ethoxy-6-[(phenylsulfonyl)amino](2-pyridyl)}phenyl)propyl]-4-ethyl-1,2,4-triazolin-5-one] was tested. Which IC50 did it give?
A: The IC50 was 5 nM.

Q: `CCNC(=O)Nc1ccc(-c2ccc(CCCc3nn(Cc4ccc(C(C)(C)C)cc4)c(=O)n3CC)cc2)nc1` [Example 169, 1-(6-(4-(3-(1-(4-(tert-Butyl)benzyl)-4-ethyl-5-oxo-4,5-dihydro-1H-1,2,4-triazol-3-yl)propyl)phenyl)pyridin-3-yl)-3-ethylurea] was tested. Which IC50 did it give?
A: Its IC50 is 535 nM.

Q: How did the IC50 turn out when `CCn1c(CCCc2ccc(-c3cccc(CNS(C)(=O)=O)c3)cc2)nn(Cc2ccc(C(C)(C)C)cc2)c1=O` [Example 178, 1-{[4-(tert-Butyl)phenyl]methyl}-4-ethyl-3-{3-[4-(3-{[(methylsulfonyl)amino]methyl}phenyl)phenyl]propyl}-1,2,4-triazolin-5-one] was run?
A: The IC50 was 417 nM.

Q: `CC(C)n1c(CCCc2ccc(-c3cccc(CC(=O)O)c3)cc2)nn(Cc2ccc(C(C)(C)C)cc2)c1=O` [Example 31, 2-(4′-(3-(1-(4-(tert-Butyl)benzyl)-4-isopropyl-5-oxo-4,5-dihydro-1H-1,2,4-triazol-3-yl)propyl)-[1,1′-biphenyl]-3-yl)acetic acid] was tested. Which IC50 did it give?
A: The IC50 was 1960 nM.

Q: How did the IC50 turn out when `CCn1c(CCCc2ccc(-c3ccc(OC)c(CNS(=O)(=O)c4ccccc4)c3)cc2)nn(Cc2ccc(C(C)(C)C)cc2)c1=O` [Example 185, 1-{[4-(tert-Butyl)phenyl]methyl}-4-ethyl-3-{3-[4-(4-methoxy-3-{[(phenylsulfonyl)amino]methyl}phenyl)phenyl]propyl}-1,2,4-triazolin-5-one] was run?
A: Its IC50 is 423 nM.

Q: How did the IC50 turn out when `CCn1c(CCCc2ccc(-c3ccc(OC)c(CC(=O)O)c3)cc2O)nn(Cc2ccc(C(C)(C)C)cc2)c1=O` [Example 146, 2-(4′-(3-(1-(4-(tert-Butyl)benzyl)-4-ethyl-5-oxo-4,5-dihydro-1H-1,2,4-triazol-3-yl)propyl)-3′-hydroxy-4-methoxy-[1,1′-biphenyl]-3-yl) acetic acid] was run?
A: Its IC50 is 98 nM.

Q: Which IC50 does the source give for `CCn1c(CCCc2ccc(-c3cccc(/C=C/C(=O)O)c3)cc2)nn(Cc2ccc(C(C)(C)C)cc2)c1=O` [Example 34, 3-(4′-(3-(1-(4-(tert-Butyl)benzyl)-4-ethyl-5-oxo-4,5-dihydro-1H-1,2,4-triazol-3-yl)propyl)-[1,1′-biphenyl]-3-yl)acrylic acid] here?
A: The IC50 was 1450 nM.

Q: Which IC50 does the source give for `CCn1c(CCCc2ccc(-c3ccc(CS(=O)(=O)NCc4ccccc4)cc3)cc2)nn(Cc2ccc(C(C)(C)C)cc2)c1=O` [Example 104, N-Benzyl-1-(4′-(3-(1-(4-(tert-butyl)benzyl)-4-ethyl-5-oxo-4,5-dihydro-1H-1,2,4-triazol-3-yl)propyl)-[1,1′-biphenyl]-4-yl)methanesulfonamide] here?
A: Its IC50 is 591 nM.

Q: For `CCn1c(CCCc2ccc(-c3cccc(C(=O)O)c3)cc2)nn(Cc2ccc(C(C)(C)C)cc2)c1=O` [Example 2, 4′-(3-(1-(4-(tert-Butyl)benzyl)-4-ethyl-5-oxo-4,5-dihydro-1H-1,2,4-triazol-3-yl)propyl)-[1,1′-biphenyl]-3-carboxylic acid], which IC50 is on record?
A: Its IC50 is 57 nM.

Q: With `CCn1c(CCCc2ccc(-c3cccc(CS(=O)(=O)NCc4ccccc4)c3)cc2)nn(Cc2ccc(C(C)(C)C)cc2)c1=O` [Example 105, N-Benzyl-1-(4′-(3-(1-(4-(tert-butyl)benzyl)-4-ethyl-5-oxo-4,5-dihydro-1H-1,2,4-triazol-3-yl)propyl)-[1,1′-biphenyl]-3-yl)methanesulfonamide] as the compound, how does the IC50 read?
A: Its IC50 is 985 nM.
